Experiments:
CDK7 = molecular target: T1, CDK7 (Homo sapiens, UniProt P50613); assay: In vitro kinase assay, CDK7; format: biochemical; conditions: ATP 5 µM; from Figure 2E
T1 construct: purchased Millipore 14-476
Description: The CKIδ, CKIα, CDK7, and ERK2 kinase assays were performed on 384-well plates (10 µl volume). The reaction mixture was as follows: for CKIδ, 2 ng/µl CKIδ (Millipore, 14-520), 50 µM peptide substrate RKKKAEpSVASLTSQCSYSS corresponding to human PER2 Lys659-Ser674 [47], and CKI buffer (40 mM Tris, 10 mM MgCl2, 0.5 mM DTT, 0.1 mg/ml BSA, pH 7.5); for CKIα, 1 ng/µl CKIα (Invitrogen, PV3850), 50 µM CKI peptide substrate (Anaspec, 60547-1), and CKI buffer; for CDK7, 5 ng/µl CDK7 (Millipore, 14-476), 100 µM Cdk7/9 peptide substrate (Millipore, 12-526), and CKI buffer; for ERK2, 1.5 ng/µl ERK2 (Millipore, 14-550), 0.8 µg/µl MBP (Millipore, 13-104), and ERK buffer (50 mM Tris, 10 mM MgCl2, 0.5 mM DTT, 1 mM EGTA, pH 7.5). Five hundred nl of compound was added to the mixture (final 5% DMSO), and the reaction was started by adding ATP (final 5 µM). After incubation at 30°C for 3h, 10 µl of Kinase-Glo Luminescent Kinase Assay reagent (Promega) was added, and the luminescence was detected to determine remaining ATP amount. […] IC50 value was obtained by using Prism software (GraphPad Software).

lung explants = assay: Circadian period in lung explants from mPer2Luc knockin mice; format: cell-based, mouse; conditions: 0 to 9 µM
Description: Explants of lung and SCN were dissected from mPer2^Luc knockin mice and cultured in explant medium as described previously. The medium was changed every week with increasing concentration of longdaysin each time (from 0 to 9 µM, final 0.7% DMSO). The luminescence was recorded every 10 min with LumiCycle luminometer (Actimetrics), and the period parameter was obtained by using LumiCycle Analysis software (Actimetrics).

embryonic fibroblasts = assay: Circadian period in embryonic fibroblasts from CKIδ deficient mPer2Luc knockin mice; format: cell-based, mouse
Description: Luminescence rhythms of adult tail fibroblasts and embryonic fibroblasts from mPer2^Luc knockin mice were analyzed similarly to U2OS cells, except that 1,800 cells were plated per well. Because of the low luminescence intensity of the fibroblasts, the higher sensitivity ViewLux imager was used for rhythm recording.

[1] = tested on: larval per3-luc zebrafish; assay: In vivo luminescence rhythms in per3-luc zebrafish; conditions: up to 9 µM
Description: The per3-luc transgenic line was obtained from Zebrafish International Resource Center. Hemizygote larval fish were entrained in 12 h light/12 h dark cycles from day 3 to 6 postfertilization. They were then placed in an individual well of a 96-well white solid-bottom plate with 180 µl of E3 solution (5 mM NaCl, 0.17 mM KCl, 0.33 mM CaCl2, and 0.33 mM MgSO4, pH 7.0) containing 0.5 mM luciferin, 0.013% Amquel Plus Instant Water Detoxifier (Kordon brand; Novalek, Hayward, California, United States), and various concentrations of longdaysin (final 0.1% DMSO). The plate was covered with optically clear film, and the luminescence was recorded every 36 min by using the Tecan luminometer at 25°C. The period parameter was obtained from the luminescence rhythm by using MultiCycle software.

Bmal1-dLuc U2OS cells = assay: Time-course assay of endogenous PER1 abundance with parallel luminescence rhythms; format: cell-based, human; conditions: for Period of Bmal1-dLuc luminescence rhythm: control 0 µM 26 h; for Time of second trough of Bmal1-dLuc luminescence rhythm: control 0 µM 34 h; for Time of second peak of PER1 protein rhythm: control 0 µM 40 h
Description: Bmal1-dLuc U2OS cells were plated onto 6-well-plates (2.0×10^5 cells/well). After 2 d, the medium was replaced with 2 ml explant medium containing 0, 3, or 9 µM longdaysin. The plate was covered with film and kept at 36°C. At indicated time points, the cells were collected with ice-cold PBS and stored at −80°C. Then the cell pellets were homogenized in SDS sample buffer and analyzed by Western blotting with anti-PER1 antibody (Cosmo Bio, KAL-KI044) or anti-α-tubulin antibody. In parallel, luminescence rhythms of the cells plated on 35 mm dishes were recorded with LumiCycle luminometer at 36°C.

[2] = tested on: CKIα- and CKIδ-dependent mobility-shift of PER1; assay: PER1 electrophoretic mobility-shift (phosphorylation) in HEK293T cells; format: cell-based; conditions: 10 or 20 µM, 24 h
Description: HEK293T cells (1.25×10^6 cells) were reverse transfected on 6-well plates by Lipofectamine 2000 with 1 µg each of expression vectors for C-terminally 3XFlag-tagged clock protein (in p3XFLAG-CMV-14, Sigma) and N-terminally HA-tagged kinase (in p3XFLAG-CMV-14). For ERK2, 0.05 µg of expression vector with 0.95 µg of empty vector was used because of its efficient expression. After 24 h, the cells were collected with ice-cold PBS and suspended in 100 µl of incubation buffer [50 mM Tris, 50 mM NaCl, 2 mM EDTA, 10% glycerol, 1 mM DTT, Complete Protease Inhibitor Cocktail (Roche), Phosphatase Inhibitor Cocktail 1 and 2 (Sigma), pH 8.0]. The mixture was supplemented with NP-40 (final 1%) and incubated on ice for 15 min, followed by centrifugation (16,000×g) at 4°C for 10 min. […] The bound proteins were eluted with SDS sample buffer, separated by SDS-PAGE (4%–12% gradient gel), and analyzed by Western blotting with anti-Flag antibody (Sigma, F1804) or anti-HA antibody conjugated with HRP (Roche, 12013819001). For the analysis of PER1 electrophoretic mobility-shift, the cell extracts were separated by SDS-PAGE (3%–8% gradient gel, Invitrogen) and analyzed by Western blotting with anti-Flag antibody or anti-α-tubulin antibody (Santa Cruz Biotechnology, sc-32293). Protein concentration of each sample was measured by the Lowry method using DC protein assay (BioRad).

CKIδ = CKIδ (Homo sapiens, UniProt P48730); assay: PER2-LUC degradation assay, CKIδ; format: cell-based; conditions: HEK293T, 0 to 20 µM, 24 h
Sequence of CKIδ (P48730 whole entry, species assumed): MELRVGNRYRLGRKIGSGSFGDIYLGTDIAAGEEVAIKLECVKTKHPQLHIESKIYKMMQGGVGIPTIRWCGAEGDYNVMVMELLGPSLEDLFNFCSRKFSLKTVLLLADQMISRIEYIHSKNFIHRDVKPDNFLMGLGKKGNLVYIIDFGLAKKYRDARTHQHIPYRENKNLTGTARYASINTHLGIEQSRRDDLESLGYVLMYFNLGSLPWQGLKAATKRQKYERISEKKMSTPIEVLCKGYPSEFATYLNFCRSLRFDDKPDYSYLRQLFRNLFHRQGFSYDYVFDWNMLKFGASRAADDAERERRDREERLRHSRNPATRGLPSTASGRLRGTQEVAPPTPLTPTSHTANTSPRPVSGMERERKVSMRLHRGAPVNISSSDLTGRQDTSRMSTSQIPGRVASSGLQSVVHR

[3] = tested on: CKIα- and CKIδ-accelerated degradation of PER1; assay: Flag-tagged PER1 degradation by Western blot in HEK293T cells; format: cell-based; conditions: 24 h

T1 sequence (P50613 whole entry): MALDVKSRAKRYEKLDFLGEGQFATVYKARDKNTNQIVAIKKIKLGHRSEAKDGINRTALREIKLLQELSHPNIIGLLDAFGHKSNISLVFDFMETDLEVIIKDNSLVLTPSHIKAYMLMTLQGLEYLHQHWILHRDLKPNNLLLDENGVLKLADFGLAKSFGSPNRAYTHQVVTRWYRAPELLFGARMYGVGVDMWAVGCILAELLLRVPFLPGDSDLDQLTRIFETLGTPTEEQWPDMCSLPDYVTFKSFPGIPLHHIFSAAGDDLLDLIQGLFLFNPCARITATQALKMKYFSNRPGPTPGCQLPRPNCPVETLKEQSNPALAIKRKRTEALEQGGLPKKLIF
T1 sequence (P51946 whole entry partner): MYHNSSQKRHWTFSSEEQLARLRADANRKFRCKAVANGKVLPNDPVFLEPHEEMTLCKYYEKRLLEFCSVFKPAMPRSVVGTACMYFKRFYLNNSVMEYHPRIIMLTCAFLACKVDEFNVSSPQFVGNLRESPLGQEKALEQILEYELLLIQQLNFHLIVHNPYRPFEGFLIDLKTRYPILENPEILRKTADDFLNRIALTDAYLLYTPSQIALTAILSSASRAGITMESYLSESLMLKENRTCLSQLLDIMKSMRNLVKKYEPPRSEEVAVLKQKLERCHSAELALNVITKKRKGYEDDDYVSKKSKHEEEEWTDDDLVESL
T1 sequence (P51948 whole entry partner): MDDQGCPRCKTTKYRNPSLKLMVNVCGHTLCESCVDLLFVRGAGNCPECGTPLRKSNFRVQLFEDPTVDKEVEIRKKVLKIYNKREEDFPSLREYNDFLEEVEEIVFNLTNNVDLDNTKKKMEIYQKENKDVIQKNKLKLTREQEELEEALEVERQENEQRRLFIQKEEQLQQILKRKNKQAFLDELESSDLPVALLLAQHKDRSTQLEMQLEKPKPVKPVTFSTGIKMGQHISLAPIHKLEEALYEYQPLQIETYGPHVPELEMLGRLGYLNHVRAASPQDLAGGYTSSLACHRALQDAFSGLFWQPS

In the case of `CC(C)n1cnc2c(NCc3cccc(C(F)(F)F)c3)ncnc21` [Longdaysin, 9-isopropyl-N-(3-(trifluoromethyl)benzyl)-9H-purin-6-amine], the IC50 (CDK7) is reported as 29 µM, the “Effect on circadian period” value (lung explants) is reported as “dose-dependent period lengthening” and the “Effect on circadian period” value (embryonic fibroblasts; CKIδ deficient (CKIδΔ2/Δ2) cells) is reported as “lengthened the period in a dose-dependent manner”. For the same compound, the “Effect on circadian period” value (embryonic fibroblasts; wild type (CKIδ+/+) cells) was “lengthened the period in a dose-dependent manner”, the “Effect on body size” value ([1]; 1 wk treatment) was “without affecting body size” and the “Period lengthening in vivo” value ([1]; per3-luc reporter fish, constant darkness) was greater than 10 h. The “Period of Bmal1-dLuc luminescence rhythm” value (Bmal1-dLuc U2OS cells; 3 µM) was 32 h, the “Time of second trough of Bmal1-dLuc luminescence rhythm” value (Bmal1-dLuc U2OS cells; 3 µM) was 38 h and the “Time of second peak of PER1 protein rhythm” value (Bmal1-dLuc U2OS cells; 3 µM) was 40 to 46 h. For the same compound, the “Period of Bmal1-dLuc luminescence rhythm” value (Bmal1-dLuc U2OS cells; 9 µM) was 38 h, the “Time of second trough of Bmal1-dLuc luminescence rhythm” value (Bmal1-dLuc U2OS cells; 9 µM) was 46 h and the “Time of second peak of PER1 protein rhythm” value (Bmal1-dLuc U2OS cells; 9 µM) was 52 h. For the same compound, the “Overall protein amount of endogenous PER1” value (Bmal1-dLuc U2OS cells; 3 or 9 µM versus 0 µM control) was “strongly up-regulated”, the “PER1 mRNA level” value (Bmal1-dLuc U2OS cells; 3 or 9 µM, RT-qPCR) was “without affecting its mRNA level” and the “Effect on CKIα- and CKIδ-dependent mobility-shift of PER1” value [2] was “reduced the CKIα- and CKIδ-dependent mobility-shift of PER1”. The “Effect on CKIδ-mediated PER2-LUC degradation” value (CKIδ) was “inhibited the CKIδ-mediated PER2-LUC degradation in a dose-dependent manner”, the “Inhibition of CKIα and CKIδ effects on PER1 degradation” value ([3]; 10 µM) was “partially inhibited” and the “Inhibition of CKIα and CKIδ effects on PER1 degradation” value ([3]; 20 µM) was “strongly inhibited”.

Source: PMC3001897, “High-Throughput Chemical Screen Identifies a Novel Potent Modulator of Cellular Circadian Rhythms and Reveals CKIα as a Clock Regulatory Kinase” (PLoS Biology, 2010)
